From patent publication US20140094486A1, “SOLID STATE FORMS OF HIV INHIBITOR” (Gilead Sciences, Inc., priority 2011, published 2014)

How the values were obtained:
Type in all cases: physicochemical
solubility = assay: solubility
[1] = intrinsic dissolution rate; conditions: pH 2.0 buffer
[2] = moisture sorption/desorption measurements; conditions: based on moisture sorption/desorption measurements
[3] = physical and chemical stability under stress conditions

solubility (solubility; pH 2, simulated gastric fluid): > 24 mg/mL
solubility (solubility; pH 4.5, aqueous buffer): > 24 mg/mL
solubility (solubility; pH 6.8, aqueous buffer): > 24 mg/mL
intrinsic dissolution rate [1]: 4528 μg/[cm^2×min]
hygroscopicity [2]: non-hygroscopic
physical and chemical stability [3]: exhibits physical and chemical stability
SMILES: Cc1nc2ccccc2c(-c2ccc3c4c(ccnc24)CCO3)c1[C@H](OC(C)(C)C)C(=O)O (atropisomer, axis not shown) [Type A]
